Assay results as given in patent US12404283B2, “c-MYC mRNA translation modulators and uses thereof in the treatment of cancer” (Anima Biotech Inc., priority 2022, dated 2025).

Tested on: c-Myc
Assay: c-Myc immunofluorescence assay
Assay type: cell-based, human
Details: A549 cells, 24 hours treatment, anti-c-Myc immunofluorescence
Summary of the method: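 High-content imaging (20×) of PFA-fixed A549 cells immunostained for c-Myc with DAPI nuclei, after 24 h compound treatment at increasing concentrations. Per-cell c-Myc signal in identified cell regions was plotted against dose and fitted by logistic regression to give EC50.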

SMILES	Myc Efficacy (−LogEC50)
CNC(=O)c1ccc(-c2cn3c(n2)sc2cc(C(=O)NCCCn4nc(C)cc4C)ccc23)cc1 [compound 232, N-(3-(3,5-dimethyl-1H-pyrazol-1-yl)propyl)-2-(4-(methylcarbamoyl)phenyl) benzo[d]imidazo[2,1-b]thiazole-7-carboxamide]	− (− ≤3)
O=C(NCCCN1CCC(F)CC1)c1ccc2c(c1)sc1nc(-c3cc(F)c(C4CCCN4)cc3F)cn12 (stereo not shown) [compound 477, 2-(2,5-difluoro-4-(pyrrolidin-2-yl)phenyl)-N-(3-(4-fluoropiperidin-1-yl)propyl)benzo[d]imidazo[2,1-b]thiazole-7-carboxamide]	+++ (+++ ≥6)
O=C(NCCCN1CCC(F)CC1)c1ccc2c(c1)sc1nc(-c3ccc(C4CCCCN4)cc3F)cn12 (stereo not shown) [Compound 480, 2-(2-fluoro-4-(piperidin-2-yl)phenyl)-N-(3-(4-fluoropiperidin-1-yl)propyl)benzo[d]imidazo[2,1-b]thiazole-7-carboxamide]	+++ (+++ ≥6)
COc1cc(-c2cn3c(n2)sc2cc(C(=O)NCCCN4CCC(F)CC4)ccc23)c(F)cc1C1CCCN1 (stereo not shown) [compound 489, 2-(2-fluoro-5-methoxy-4-(pyrrolidin-2-yl)phenyl)-N-(3-(4-fluoropiperidin-1-yl)propyl)benzo[d]imidazo[2,1-b]thiazole-7-carboxamide]	++ (++ ≥5 and <6)
C#CCCC1(CCOc2ccccc2-c2cn3c(n2)sc2cc(C(=O)NCCCN4CCCCC4)ccc23)N=N1 [compound 326, 2-(2-(2-(3-(but-3-yn-1-yl)-3H-diazirin-3-yl)ethoxy)phenyl)-N-(3-(piperidin-1-yl)propyl)benzo[d]imidazo [2,1-b]thiazole-7-carboxamide]	++ (++ ≥5 and <6)
O=C(NCCCN1CCC(F)CC1)c1ccc2c(c1)sc1nc(-c3ccc(C4(O)CCNC4)cc3F)cn12 (stereo not shown) [Compound 516, 2-(2-fluoro-4-(3-hydroxypyrrolidin-3-yl)phenyl)-N-(3-(4-fluoropiperidin-1-yl)propyl)benzo[d]imidazo[2,1-b]thiazole-7-carboxamide]	+++ (+++ ≥6)
CNC(=O)c1ccc(-c2cn3c(n2)sc2cc(C(=O)N[C@H]4COC[C@@H]4O)ccc23)cc1 [compound 219, N-((3S,4R)-4-hydroxytetrahydrofuran-3-yl)-2-(4-(methylcarbamoyl)phenyl) benzo[d]imidazo[2,1-b]thiazole-7-carboxamide]	+ (+ >3 and <5)
CNC(=O)c1ccc(-c2cn3c(n2)sc2cc(C(=O)NCCCN4CCC(F)CC4)ccc23)cc1 [compound 309, N-(3-(4-fluoropiperidin-1-yl)propyl)-2-(4-(methylcarbamoyl)phenyl) benzo[d]imidazo[2,1-b]thiazole-7-carboxamide]	++ (++ ≥5 and <6)
CCN(CC)CCCNC(=O)c1ccc2c(c1)sc1nc(-c3ccc(C4CCOCC4)cc3)cn12 [compound 314, N-(3-(diethylamino)propyl)-2-(4-(tetrahydro-2H-pyran-4-yl)phenyl)benzo[d]imidazo [2,1-b]thiazole-7-carboxamide]	+ (+ >3 and <5)
CNC(=O)c1ccc(-c2cn3c(n2)sc2cc(C(=O)NCCOC(C)C)ccc23)cc1 [compound 211, N-(2-isopropalyethyl)-2-(4-(methylcarbamoyl)phenyl) benzo[d]imidazo[2,1-b]thiazole-7-carboxamide]	− (− ≤3)
CN1CCC(NC(=O)c2ccc3c(c2)sc2nc(-c4ccc(C5(O)CCNC5)cc4F)cn23)CC1 (stereo not shown) [compound 530, 2-(2-fluoro-4-(3-hydroxypyrrolidin-3-yl)phenyl)-N-(1-methylpiperidin-4-yl)benzo[d]imidazo[2,1-b]thiazole-7-carboxamide]	+++ (+++ ≥6)
CNC(=O)c1ccc(-c2cn3c(n2)sc2cc(C(=O)NC[C@H]4CCCN4)ccc23)cc1 [compound 224, (R)-2-(4-(methylcarbamoyl)phenyl)-N-(pyrrolidin-2-ylmethyl)benzo[d]imidazo[2,1-b]thiazole-7-carboxamide]	− (− ≤3)
CNC(=O)c1ccc(-c2cn3c(n2)sc2cc(C(=O)NCc4nncn4C4CC4)ccc23)cc1 [compound 223, N-((4-cyclopropyl-4H-1,2,4-triazol-3-yl)methyl)-2-(4-(methylcarbamoyl)phenyl) benzo[d]imidazo[2,1-b]thiazole-7-carboxamide]	− (− ≤3)
Cc1cccc(-c2cn3c(n2)sc2cc(C(=O)NCCCN4CCCC4=O)ccc23)c1 [compound 150, N-(3-(2-oxopyrrolidin-1-yl)propyl)-2-(m-tolyl)benzo[d]imidazo[2,1-b]thiazole-7-carboxamide]	+ (+ >3 and <5)
CCN(CC)CCCNC(=O)c1ccc2c(c1)sc1nc(-c3ccc([C@H](NC)C(F)(F)F)cc3)cn12 [compound 294, (S)-N-(3-(diethylamino)propyl)-2-(4-(2,2,2-trifluoro-1-(methylamino)ethyl)phenyl) benzo[d]imidazo[2,1-b]thiazole-7-carboxamide]	++ (++ ≥5 and <6)
O=C(NCCCN1CCC(F)CC1)c1ccc2c(c1)sc1nc(-c3ccc(C4CC(F)(F)CN4)cc3F)cn12 (stereo not shown) [Compound 490, 2-(4-(4,4-difluoropyrrolidin-2-yl)-2-fluorophenyl)-N-(3-(4-fluoropiperidin-1-yl)propyl)benzo[d]imidazo[2,1-b]thiazole-7-carboxamide]	+++ (+++ ≥6)
CCN(CC)CCCN(C)C(=O)c1ccc2c(c1)sc1nc(-c3ccc(C(=O)NC)cc3)cn12 [compound 180, N-(3-(diethylamino)propyl)-N-methyl-2-(4-(methylcarbamoyl)phenyl) benzo[d]imidazo[2,1-b]thiazole-7-carboxamide]	+ (+ >3 and <5)
CNC(=O)c1ccc2c(c1)sc1nc(-c3ccc([C@@H]4C[C@H](O)CN4)cc3F)cn12 [compound 521, 2-(2-fluoro-4-((2S,4S)-4-hydroxypyrrolidin-2-yl)phenyl)-N-methylbenzo[d]imidazo[2,1-b]thiazole-7-carboxamide]	+++ (+++ ≥6)
CNC(=O)c1ccc(-c2cn3c(n2)sc2cc(C(=O)NCCCN4CC5CC4CN5C)ccc23)cc1 (stereo not shown) [compound 249, N-(3-(5-methyl-2,5-diazabicyclo[2.2.1]heptan-2-yl)propyl)-2-(4-(methylcarbamoyl)phenyl) benzo[d]imidazo[2,1-b]thiazole-7-carboxamide]	− (− ≤3)
CNC(=O)c1ccc(-c2cn3c(n2)sc2cc(C(=O)NCCCN4CCCCC4)ccc23)cc1 [compound 174, 2-(4-(methylcarbamoyl)phenyl)-N-(3-(piperidin-1-yl)propyl)benzo[d]imidazo [2,1-b]thiazole-7-carboxamide]	+++ (+++ ≥6)
NCc1ccc(-c2cn3c(n2)sc2cc(C(=O)NCCCN4CCCCC4)ccc23)c(C(F)(F)F)c1 [compound 372, 2-(4-(aminomethyl)-2-(trifluoromethyl)phenyl)-N-(3-(piperidin-1-yl)propyl)benzo[d]imidazo [2,1-b]thiazole-7-carboxamide]	++ (++ ≥5 and <6)
O=C(NCCCN1CCCCC1)c1ccc2c(c1)sc1nc(-c3ccc(CNC4CC4)cc3)nn12 [compound 393, 2-(4-((cyclopropylamino)methyl)phenyl)-N-(3-(piperidin-1-yl)propyl)benzo[4,5]thiazolo [3,2-b][1,2,4]triazole-6-carboxamide]	+++ (+++ ≥6)
